Results reported in PubChem BioAssay AID256 (DTP/NCI, 2004).
“And” between values parts separate entries of the source, which are not always exact repeats. Equal values may be shown once. Inconclusive results and toxic doses are left out.

Test system: CD2F1 mice, L1210 leukemia ip, survival T/C
Test: NCI In Vivo Anticancer Drug Screen. Data for tumor model L1210 Leukemia (intraperitoneal) in CD2F1 (CDF1) mice
Conditions: higher = longer survival
Summary of the method: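 Mice carrying a transplanted tumor received test compound or vehicle alone. The value is the measurement in the treated group divided by that in the vehicle-treated control group.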

[1] = endpoint: mean survival time, dose: 100.0 mg/kg/injection, schedule: Q01DX001 (ip), vehicle: saline with Tween-80
[2] = endpoint: mean survival time, dose: 100.0 mg/kg/injection, schedule: Q01DX001 (ip), vehicle: saline
[3] = endpoint: mean survival time, dose: 200.0 mg/kg/injection, schedule: Q01DX001 (ip), vehicle: saline
[4] = endpoint: mean survival time, dose: 400.0 mg/kg/injection, schedule: Q01DX001 (ip), vehicle: saline

NCCCNCCCCNC(=O)C(O)NC(=O)CC(O)CCCCN=C(N)N (configuration not stated)
T/C (endpoint: median survival time, dose: 1.56 mg/kg/injection, schedule: Q01DX009 (ip), vehicle: saline): 161 % of control and 181 % of control | T/C (endpoint: median survival time, dose: 3.0 mg/kg/injection, schedule: Q01DX009 (ip), vehicle: saline): 162 % of control | T/C (endpoint: median survival time, dose: 3.12 mg/kg/injection, schedule: Q01DX009 (ip), vehicle: saline): 164 % of control and 168 % of control and 210 % of control | T/C (endpoint: median survival time, dose: 6.0 mg/kg/injection, schedule: Q01DX009 (ip), vehicle: saline): 207 % of control | T/C (endpoint: median survival time, dose: 6.25 mg/kg/injection, schedule: Q01DX009 (ip), vehicle: saline): 164 % of control and 191 % of control and 219 % of control | T/C (endpoint: median survival time, dose: 12.0 mg/kg/injection, schedule: Q01DX009 (ip), vehicle: saline): 219 % of control | T/C (endpoint: median survival time, dose: 12.5 mg/kg/injection, schedule: Q01DX009 (ip), vehicle: saline): 173 % of control and 196 % of control and 217 % of control | T/C (endpoint: median survival time, dose: 100.0 mg/kg/injection, schedule: Q01DX009 (ip), vehicle: saline): 206 % of control and 235 % of control

COc1ccc(-n2cnc3c(=O)[nH]c(N)nc32)cc1
T/C (endpoint: mean survival time, dose: 25.0 mg/kg/injection, schedule: Q01DX001 (ip), vehicle: saline with Tween-80): 95 % of control | T/C (endpoint: mean survival time, dose: 50.0 mg/kg/injection, schedule: Q01DX001 (ip), vehicle: saline with Tween-80): 92 % of control | T/C [1]: 95 % of control

ClC1(Cl)C2COCOCC21 (configuration not stated)
T/C [1]: 91 % of control | T/C (endpoint: mean survival time, dose: 200.0 mg/kg/injection, schedule: Q01DX001 (ip), vehicle: saline with Tween-80): 91 % of control | T/C (endpoint: mean survival time, dose: 400.0 mg/kg/injection, schedule: Q01DX001 (ip), vehicle: saline with Tween-80): 95 % of control

CN(C)/N=C(\CBr)c1ccccc1
T/C (endpoint: mean survival time, dose: 50.0 mg/kg/injection, schedule: Q01DX009 (ip), vehicle: saline sonified): 96 % of control | T/C [2]: 102 % of control | T/C (endpoint: mean survival time, dose: 100.0 mg/kg/injection, schedule: Q01DX009 (ip), vehicle: saline sonified): 103 % of control | T/C [3]: 100 % of control

CCCC/C=C\C(=O)OC
T/C (endpoint: mean survival time, dose: 50.0 mg/kg/injection, schedule: Q01DX009 (ip), vehicle: saline with Tween-80): 101 % of control | T/C (endpoint: mean survival time, dose: 100.0 mg/kg/injection, schedule: Q01DX009 (ip), vehicle: saline with Tween-80): 104 % of control | T/C (endpoint: mean survival time, dose: 200.0 mg/kg/injection, schedule: Q01DX009 (ip), vehicle: saline with Tween-80): 101 % of control

Cc1cc2sc(C)[n+](CCCOS(=O)(=O)[O-])c2cc1C
T/C (endpoint: mean survival time, dose: 75.0 mg/kg/injection, schedule: Q01DX001 (ip), vehicle: saline): 104 % of control | T/C (endpoint: mean survival time, dose: 150.0 mg/kg/injection, schedule: Q01DX001 (ip), vehicle: saline): 104 % of control | T/C (endpoint: mean survival time, dose: 300.0 mg/kg/injection, schedule: Q01DX001 (ip), vehicle: saline): 96 % of control

CC12CCC(c3cn(C(=O)c4cccnc4)nc31)C2(C)C (configuration not stated)
T/C (endpoint: mean survival time, dose: 50.0 mg/kg/injection, schedule: Q01DX009 (ip), vehicle: Klucel (hydroxypropylcellulose) (HPC)): 102 % of control | T/C (endpoint: mean survival time, dose: 100.0 mg/kg/injection, schedule: Q01DX009 (ip), vehicle: Klucel (hydroxypropylcellulose) (HPC)): 94 % of control

CCCCOC(=O)C1(N)CCCC1
T/C (endpoint: mean survival time, dose: 100.0 mg/kg/injection, schedule: Q04DX003 (ip), vehicle: saline): 110 % of control | T/C (endpoint: mean survival time, dose: 400.0 mg/kg/injection, schedule: Q04DX003 (ip), vehicle: saline): 102 % of control

Nc1n[n+](-c2ccc(Cl)cc2)no1
T/C (endpoint: mean survival time, dose: 1.56 mg/kg/injection, schedule: Q01DX009 (ip), vehicle: water): 92 % of control | T/C (endpoint: mean survival time, dose: 3.12 mg/kg/injection, schedule: Q01DX009 (ip), vehicle: water): 97 % of control and 112 % of control | T/C (endpoint: mean survival time, dose: 6.25 mg/kg/injection, schedule: Q01DX009 (ip), vehicle: water): 93 % of control and 96 % of control | T/C (endpoint: mean survival time, dose: 12.5 mg/kg/injection, schedule: Q01DX009 (ip), vehicle: water): 95 % of control and 98 % of control | T/C (endpoint: mean survival time, dose: 25.0 mg/kg/injection, schedule: Q01DX009 (ip), vehicle: water): 103 % of control and 104 % of control | T/C (endpoint: mean survival time, dose: 50.0 mg/kg/injection, schedule: Q01DX009 (ip), vehicle: water): 114 % of control

C1CC[N-]CC1.C1CC[N-]CC1.O=C(O)CC(=O)O.[Pt+2]
T/C (endpoint: mean survival time, dose: 3.13 mg/kg/injection, schedule: Q04DX003 (ip), vehicle: saline with Tween-80): 100 % of control | T/C (endpoint: mean survival time, dose: 6.25 mg/kg/injection, schedule: Q04DX003 (ip), vehicle: saline with Tween-80): 97 % of control | T/C (endpoint: mean survival time, dose: 12.5 mg/kg/injection, schedule: Q04DX003 (ip), vehicle: saline with Tween-80): 100 % of control | T/C (endpoint: mean survival time, dose: 25.0 mg/kg/injection, schedule: Q04DX003 (ip), vehicle: saline with Tween-80): 100 % of control | T/C (endpoint: mean survival time, dose: 50.0 mg/kg/injection, schedule: Q04DX003 (ip), vehicle: saline with Tween-80): 97 % of control | T/C (endpoint: mean survival time, dose: 100.0 mg/kg/injection, schedule: Q04DX003 (ip), vehicle: saline with Tween-80): 100 % of control | T/C (endpoint: mean survival time, dose: 200.0 mg/kg/injection, schedule: Q04DX003 (ip), vehicle: saline with Tween-80): 96 % of control

COC1=C(OC)C(=O)C(C/C=C(\C)CC/C=C(\C)CC/C=C(\C)CC/C=C(\C)CC/C=C(\C)CCC=C(C)C)=C(C)C1=O
T/C [2]: 102 % of control | T/C [3]: 103 % of control | T/C [4]: 100 % of control

CC1(O)CS(=O)(=O)CC1O (configuration not stated)
T/C [2]: 105 % of control | T/C [3]: 103 % of control | T/C [4]: 101 % of control
